Literature values in patent US20140255982A1, “METHOD OF CANCER DIAGNOSIS USING THE ANALYSIS OF ISOTOPES” (priority 2007, published 2014).

What was measured:
microorganisms = conditions: deuterium in the form of D2O
rats = conditions: within 5 days; deuterium in the form of D2O

For [2H]O[2H] [D2O], the “inhibitory activity against microorganisms” value (microorganisms) is listed as 92% and the “kill rate of rats” value (rats) is listed as 99.5%.
